Results published in ChEMBL document CHEMBL4732086, “Targeting nuclear protein TDP-43 by cell division cycle kinase 7 inhibitors: A new therapeutic approach for amyotrophic lateral sclerosis” (Eur J Med Chem, 2021).
Activity calls are given as the source filed them. The rule behind the calls is not given here.

Key:
[1] = target: CDC7/DBF4 (Cell division cycle 7-related protein kinase/Activator of S phase kinase) (Homo sapiens) (UniProt Q9UBU7+O00311); experiment: Competitive inhibition of recombinant human full length N-terminal GST tagged CDC7/Dbf4 expressed in baculovirus infected Sf9 insect cells assessed as inhibition of substrate phosphorylation using PDKtide as substrate at 5 to 10 uM measured after 60 mins by ATP assay; details: dose 5-10 µM
[2] = target: Calcium/calmodulin-dependent protein kinase type 1D (Homo sapiens) (UniProt Q8IU85); experiment: Inhibition of recombinant full length human His-tagged CAMK1delta expressed in baculovirus expression system using serine/threonine-25 peptide as substrate at 10 uM incubated for 60 mins in presence of ATP by Z'-LYTE assay
SH-SY5Y = experiment: Neuroprotective activity in human SH-SY5Y cells assessed as decrease in cytoplasmic TDP-43 preincubated for 1 hr followed by incubation with ethacrynic acid for 24 hrs measured at 10 uM by immunofluorescence assay; assay type: functional, cell-based
Caenorhabditis elegans [3] = experiment: Inhibition of CDC7 in transgenic Caenorhabditis elegans CK423 Bus-8(e2698) expressing human TDP-43 assessed as inhibition of TDP-43 phosphorylation at 10 to 75 uM measured after 6 days by Western blot assay; details: dose 10-75 µM, time 6.0 day
[4] = target: T1, Tyrosine-protein kinase JAK3 (Homo sapiens) (UniProt P52333); experiment: Inhibition of recombinant human GST-tagged JAK3 expressed in baculovirus expression system using Tyr-06 peptide as substrate at 10 uM incubated for 60 mins in presence of ATP by Z'-LYTE assay
T1 sequence (whole entry): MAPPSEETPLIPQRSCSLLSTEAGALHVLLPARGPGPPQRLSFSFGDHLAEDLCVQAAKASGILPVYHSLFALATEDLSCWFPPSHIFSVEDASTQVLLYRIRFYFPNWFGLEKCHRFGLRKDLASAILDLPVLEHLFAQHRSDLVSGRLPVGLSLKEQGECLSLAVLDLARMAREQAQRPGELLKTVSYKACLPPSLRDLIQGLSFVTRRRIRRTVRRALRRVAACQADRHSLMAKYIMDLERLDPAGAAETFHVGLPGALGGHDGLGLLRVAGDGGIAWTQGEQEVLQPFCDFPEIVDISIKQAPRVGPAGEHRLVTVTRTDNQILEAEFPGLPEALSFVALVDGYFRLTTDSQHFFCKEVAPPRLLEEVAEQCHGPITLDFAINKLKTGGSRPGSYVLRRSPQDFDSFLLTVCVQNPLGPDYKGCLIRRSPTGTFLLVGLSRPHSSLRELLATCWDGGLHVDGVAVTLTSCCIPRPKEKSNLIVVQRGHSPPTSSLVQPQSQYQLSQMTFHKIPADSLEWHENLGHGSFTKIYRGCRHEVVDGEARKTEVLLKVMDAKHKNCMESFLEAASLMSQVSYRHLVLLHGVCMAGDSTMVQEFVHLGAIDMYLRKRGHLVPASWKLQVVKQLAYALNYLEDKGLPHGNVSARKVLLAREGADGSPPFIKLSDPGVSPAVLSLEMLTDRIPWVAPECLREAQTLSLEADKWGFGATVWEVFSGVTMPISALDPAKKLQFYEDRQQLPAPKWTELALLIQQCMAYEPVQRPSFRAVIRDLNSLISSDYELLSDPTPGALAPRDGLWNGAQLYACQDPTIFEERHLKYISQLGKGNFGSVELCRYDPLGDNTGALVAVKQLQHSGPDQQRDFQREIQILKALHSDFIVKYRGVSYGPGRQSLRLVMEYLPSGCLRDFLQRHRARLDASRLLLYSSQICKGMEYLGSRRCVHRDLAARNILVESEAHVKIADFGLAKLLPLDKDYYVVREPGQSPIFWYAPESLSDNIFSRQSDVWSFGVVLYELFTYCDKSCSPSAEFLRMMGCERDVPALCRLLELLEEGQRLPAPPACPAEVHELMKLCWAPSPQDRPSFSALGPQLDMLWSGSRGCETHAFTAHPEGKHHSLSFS

Caenorhabditis elegans [5] = experiment: Inhibition of CDC7 in transgenic Caenorhabditis elegans CK423 Bus-8(e2698) expressing human TDP-43 assessed as inhibition of TDP-43 phosphorylation at 75 uM measured after 6 days by Western blot assay; details: time 6.0 day
[6] = Toxicity in Prp-hTDP43 (A315T) mouse at 5 mg/kg, ip qd for 30 days; assay type: organism-based; details: in vivo, 720 h, time 30 day
Mus musculus [7] = experiment: Neuroprotective activity in Prp-hTDP43 (A315T) transgenic amyotrophic lateral sclerosis mouse model assessed as decrease in clasping behavioural at 5 mg/kg, ip qd measured on week 5 by rotarod test; assay type: functional, organism-based; details: time 5.0 weeks
Mus musculus [8] = experiment: Neuroprotective activity in Prp-hTDP43 (A315T) mouse assessed by decrease in TDP-43 phosphorylation in spinal cord tissue at 5 mg/kg, ip qd for 30 days by Western blot assay; assay type: functional, organism-based; details: time 30.0 day
Mus musculus [9] = experiment: Neuroprotective activity in Prp-hTDP43 (A315T) transgenic amyotrophic lateral sclerosis mouse model assessed as decrease in clasping behavioural at 5 mg/kg, ip qd measured on week 3 by rotarod test; assay type: functional, organism-based; details: time 3.0 weeks

inhibition [1]	inhibition [2]	inhibition [4]	inhibition (Caenorhabditis elegans [5])	SMILES	Activity (SH-SY5Y)	inhibition (Caenorhabditis elegans [3])	Activity [6]	Activity (Mus musculus [7])	Activity (Mus musculus [8])	Activity (Mus musculus [9])
Active	inactive	inactive	–	Clc1cccc(CSc2ncnc3[nH]cnc23)c1	Active	inactive	–	–	–	–
Active	inactive	inactive	Active	c1ccc(CSc2ncnc3[nH]cnc23)cc1	–	–	–	–	–	–

SMILES	inhibition [1]	inhibition [2]	inhibition [4]	inhibition (Caenorhabditis elegans [5])	Activity (SH-SY5Y)	inhibition (Caenorhabditis elegans [3])	Activity [6]	Activity (Mus musculus [7])	Activity (Mus musculus [8])	Activity (Mus musculus [9])
Brc1ccccc1CSc1ncnc2[nH]cnc12	Active	inactive	inactive	–	–	inactive	Non-Toxic	Active	Active	Active
